“And” between values parts separate entries of the source, which are not always exact repeats. Equal values may be shown once. “Also recorded” adds a separate entry of the source.
Tests used:
[1] = test system: Pkd1^RC/RC PKD mouse model; experiment: PKD mouse model Pkd1RC/RC, kidney weight/body weight; type: in vivo; settings: Pkd1^RC/RC mice, 0.03 mg in 100 mg of chow, treated from age 4 weeks to 12 weeks
Method: The PKD mouse model, Pkd1^RC/RC, was used in this experiment. Probenecid (0.03 mg in 100 mg of chow), tolvaptan (0.03 mg in 100 mg of chow), or the combination of tolvaptan and probenecid were mixed with the food. […] The treatment started from age 4 weeks to 12 weeks. Mice were sacrificed, and the kidney weight (KW) was measured then standardized to body weight (BW). KW/BW ratio was an established method to report an effect of therapy in ADPKD mouse models.

mIMCD3 cells [2] = experiment: Time-lapse imaging of cytoplasmic calcium with Gcamp6s biosensor; type: cell-based, mouse; settings: probenecid 1000 μM, mIMCD3 cells stably transfected with Gcamps6s
Method: FIG. 1B. Probenecid increases intracytoplasmic calcium in mouse inner medullary collecting duct cells (mIMCD3). mIMCD3 cells were stably transfected with […] (cytoplasmic calcium genetically encoded biosensor) and grown on 35 mm glass bottom dish for at least 5 days post confluence then imaged under confocal microscopy every 3 seconds. Probenecid (1000 μM) was added to the medium at 10.5 minutes as noted by the blue bar. Fluorescence changes of a region of interest (ROI) in each cell are analyzed in Zen software and reported as a ratio of fluorescence over baseline fluorescence of each ROI (F/F0). An increase in F/F0 indicates relative increase in cytoplasmic calcium. Probenecid increased cytoplasmic calcium by 4-6 folds compared to baseline calcium. Two representative images at baseline and at peak increase of cytoplasmic calcium are shown. Mouse inner medullary collecting duct immortalized cell lines were used (mIMCD3): wild type (WT) or with a knockout of Pkd1 (Pkd^1-/-) or Pkd2 (Pkd^2-/-). WT cells were transfected with GCamp6s by electroporation (Bio Rad Gene pulser Xcell). […] Time lapses (every 3 seconds) were captured on Zeiss confocal microscope (LSM-780) and analyzed on Zeiss Zen Pro software. […] Fluorescence changes of a region of interest (ROI) in each cell were analyzed in Zen software and reported as a ratio of fluorescence over baseline fluorescence of each ROI (F/F0). […]

mIMCD3 cells [3] = experiment: cAMP ELISA assay; type: cell-based, mouse
Method: FIG. 4. Probenecid enhances the intracellular accumulation of cAMP generated in response to forskolin. Wild type mIMCD3 cells were grown in 6 wells plate to confluence for at least 5 days then treated with either forskolin (10 μM) alone, probenecid alone (500 μM; PB 500), or forskolin (FSK) with probenecid (100 μM, PB100; 250 μM, PB250; and 500 μM, PB500). cAMP was measured by ELISA assay (pmol/mg of protein). […] Cells were grown in 6-wells culture dishes and incubated for at least 5 days post confluence. Cells were collected then homogenized in 0.1 M HCl. The protein concentration was measured by using BCA Protein Assay Kit. After centrifugation, the supernatant was further diluted in 0.1 M HCl. cAMP content was assessed by enzyme-linked immunosorbent assay. The results were expressed in picomoles per milligram of protein. Probenecid inhibited MRP1 mediated efflux of cAMP.

mIMCD3 cells [4] = experiment: Three dimensional (3D) cystogenesis assay, forskolin-induced; type: cell-based, mouse; settings: for reduction in cyst size: 5 days
Method: FIG. 2. Probenecid reduces forskolin-induced cystogenesis. mIMCD3 cells were grown in 3D matrigel-based extracellular matrix system and incubated with defined medium (control)+/−forskolin (10 μM) and probenecid (500 μM and 1000 μM) for 5 days. Cysts were imaged using an inverted phase microscope, and cyst size was quantified by measuring cyst diameter using Image J software and reported as cyst surface area (μm^2). Forskolin induced cystogenesis in wild type. […] FIG. 3. Probenecid reduces forskolin induced in vitro cystogenesis. As described in FIG. 3, cells were grown in matrigel based system for 5 days. All four groups shown were stimulated with 10 μM of forskolin. Different doses of probenecid were compared. A dose effect was seen as higher dose of probenecid were more efficacious in reducing cyst growth when stimulated with forskolin. […] 3D matrix was prepared by mixing 1:1 matrigel with defined medium (DMEM, 25 μg/L EGF, 5 μg/mL insulin, 5 μg/mL transferrin, 5 ng/mL selenium, penicillin, streptomycin, 5×10^−12 M triiodothyronine, and 5×10^−8 M hydrocortisone). Cells were mixed with the extracellular matrix and grown in 96-wells plate (8000-10000 cells per well). The desired drug concentration (forskolin 10 μM, probenecid 500-1000 μM) was added to the medium and changed on a daily basis. Images of the wells were taken daily by an inverted phase contrast microscope. Images from day 5 were analyzed using Image J software. Cyst surface was calculated using cyst diameter. mIMCD3 cells were grown in three dimensional matrix-based extracellular matrix. When stimulated with forskolin, these cells grew to form multiple cysts. […] The cyst reduction may be due to inhibition of cell proliferation, inhibition of chloride driven fluid secretion, or both.

embryonic kidneys = experiment: Forskolin-induced cystogenesis in cultured embryonic kidneys; settings: E13.5 kidneys, forskolin-stimulated, probenecid 500 μM, day 5
Method: FIG. 6 contains photographs showing that probenecid (500 μM) dramatically reduces cystogenesis in embryonic kidneys. Embryonic kidneys were harvested at E13.5 (embryos were 13-14 days old in utero). These kidneys were harvested and cultured on filters and stimulated with forskolin to induce cysts.

mIMCD3 cells [5] = experiment: Proliferation assay (Incucyte confluence); type: cell-based, mouse; settings: 7 days
Method: FIG. 5. Probenecid inhibits proliferation in mICMD3 cells. mIMCD3 cells were grown in 96 wells plate (2500 […]) for 7 days and imaged every 4 hours in an incubator-based imaging system (Incucyte). Confluence was measured at each time point. Cells were treated with defined medium (control), forskolin (FSK) 10 μM, or probenecid (PB) 500 μM and 1000 μM. Control and forskolin (FSK 10 μM) groups reached confluence faster when compared to probenecid alone or probenecid with forskolin. […] Cells were seeded in 96 wells plate (2500 cells/well) and grown for 7 days. Images were taken by an incubator-based microscope (Incucyte) every 4 hours and analyzed for confluence. Probenecid inhibited proliferation in a dose dependent manner. Cells were grown and imaged for 7 days in an incubator-based imaging system (IncuCyte) and analyzed for confluence.

| Compound | mean KW/BW ratio [1] | increase in cytoplasmic calcium (F/F0) compared to baseline calcium (mIMCD3 cells [2]) | intracellular cAMP, probenecid combined with forskolin versus forskolin alone (mIMCD3 cells [3]; wild type mIMCD3, forskolin 10 μM plus probenecid 100, 250, 500 μM) | intracellular cAMP, probenecid alone (mIMCD3 cells [3]; wild type mIMCD3, probenecid 500 μM, no forskolin) | reduction in cyst size (mIMCD3 cells [4]; probenecid 500 μM with forskolin 10 μM) [%] | reduction in cyst size (mIMCD3 cells [4]; probenecid 1000 μM with forskolin 10 μM) [%] | reduction of cystic burden in 3D in vitro cystogenesis assay (mIMCD3 cells [4]; summary statement) | cystogenesis with probenecid alone (mIMCD3 cells [4]; without forskolin) | cyst formation in embryonic kidney culture (embryonic kidneys) | proliferation (confluence) (mIMCD3 cells [5]; Pkd2 null mIMCD3, probenecid 1000 μM alone) | proliferation (confluence) (mIMCD3 cells [5]; wild type mIMCD3, probenecid 500 and 1000 μM) |
| --- | --- | --- | --- | --- | --- | --- | --- | --- | --- | --- | --- |
| Cc1ccccc1C(=O)Nc1ccc(C(=O)N2CCCC(O)c3cc(Cl)ccc32)c(C)c1 (stereo not drawn) [tolvaptan] | 2.07% (±0.42) | – | – | – | – | – | – | – | – | – | – |
| CCCN(CCC)S(=O)(=O)c1ccc(C(=O)O)cc1 [probenecid, 4-(dipropyl-sulfamoyl) benzoic acid] | 2.56% (±0.42) | 4-6 fold and 4- to 6 fold | increased cAMP levels in a dose dependent fashion | did not increase cAMP | 68.4 | 82.6 | more than 80% | did not induce any cystogenesis | significantly inhibited; also recorded: almost completely prevents cyst formation | most completely inhibited proliferation | significantly inhibited proliferation |

Reference: patent US11547685B2, “Using probenecid to treat polycystic kidney disease” (Mayo Foundation for Medical Education and Research, priority 2017, dated 2023)
